Measured values: patent US20030199571A1, “(Hetero) Bicyclymethanesulfonylamino-substituted hydroxamic acid derivatives” (priority 1999, published 2003)

target: T1, human recombinant collagenase (Homo sapiens, UniProt P03956); experiment: Collagenase inhibition assay (Cawston and Barrett); assay type: biochemical; details: acetylated 3H type 1 bovine collagen, 37° C., 18 h
T1 construct: made in house; host or cells: E. coli
T1 sequence (P03956 100-469): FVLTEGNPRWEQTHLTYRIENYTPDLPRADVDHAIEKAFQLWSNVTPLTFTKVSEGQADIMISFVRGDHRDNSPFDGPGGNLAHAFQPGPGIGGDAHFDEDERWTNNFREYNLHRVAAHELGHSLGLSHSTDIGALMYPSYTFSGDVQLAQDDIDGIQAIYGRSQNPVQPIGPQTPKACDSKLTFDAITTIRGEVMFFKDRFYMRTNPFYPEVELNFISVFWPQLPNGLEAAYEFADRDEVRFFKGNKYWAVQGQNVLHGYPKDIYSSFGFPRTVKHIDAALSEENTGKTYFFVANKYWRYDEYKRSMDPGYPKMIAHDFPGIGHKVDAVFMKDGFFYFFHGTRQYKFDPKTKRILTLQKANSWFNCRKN
Experimental: Procedure 2: The ability of test compounds to inhibit collagenase was investigated using the following procedure.
Collagenase Inhibition Assay:
The potency of compounds to act as inhibitors of collagenase was determined by the method of Cawston and Barrett (Anal. Biochem. 99, 340-345, 1979), hereby incorporated by reference, whereby a 1 mM solution of the inhibitor being tested or dilutions thereof, was incubated at 37° C. for 18 h with collagen and human recombinant collagenase, from synovial fibroblasts cloned, expressed and purified from E. coli, (buffered with 150 mM Tris, pH 7.6, containing 15 mM calcium chloride, 0.05% Brij 35, 200 mM sodium chloride and 0.02% sodium azide). The collagen was acetylated ^3H type 1 bovine collagen prepared by the method of Cawston and Murphy (methods in Enzymology 80, 711,1981) The samples were centrifuged to sediment undigested collagen and an aliquot of the radioactive supernatant removed for assay on a scintillation counter as a measure of hydrolysis. The collagenase activity in the presence of 1 mM inhibitor, or dilution thereof, was compared to activity in a control devoid of inhibitor and the results reported as that concentration effecting 50% of the collagenase (IC50).

SMILES | IC50
CC(C)(C)[C@@H](NS(=O)(=O)Cc1ccc2sccc2c1)C(=O)NO [Example 43] | ≥ 10 µM
O=C(NO)[C@@H](CC1CCCCC1)NS(=O)(=O)Cc1ccc2ccccc2c1 [Example 9] | ≥ 10 µM
O=C(NO)[C@H](NS(=O)(=O)Cc1ccc2ccccc2c1)c1ccc(O)cc1 [Example 12] | ≥ 10 µM
CC(C)(C)C[C@@H](NS(=O)(=O)Cc1ccc2sccc2c1)C(=O)NO [Example 42] | ≥ 10 µM
O=C(NO)[C@@H](Cc1ccccc1)NS(=O)(=O)Cc1ccc2ccccc2c1 [Example 5] | ≥ 10 µM
O=C(NO)[C@@H](Cc1csc2ccccc12)NS(=O)(=O)Cc1ccc2ccccc2c1 [Example 14] | ≥ 10 µM

The remaining lines, values ahead:

IC50 | SMILES
≥ 10 µM | CC(C)c1ccc([C@@H](NS(=O)(=O)Cc2ccc3sccc3c2)C(=O)NO)cc1 [Example 56, (R)-2-(Benzo[b]thiophen-5-ylmethanesulfonylamino)-2-(4-isopropylphenyl)-N-hydroxy-acetamide]
≥ 10 µM | O=C(NO)[C@@H](CCc1ccccc1)NS(=O)(=O)Cc1ccc2sccc2c1 [Example 38, (R)-2-(Benzo[b]thiophen-5-ylmethanesulfonylamino)-N-hydroxy-4-phenyl-butyramide]
≥ 10 µM | O=C(NO)[C@@H](Cc1c[nH]c2ccccc12)NS(=O)(=O)Cc1ccc2sccc2c1 [Example 31, (R)-2-(Benzo[b]thiophen-5-ylmethanesulfonylamino)-N-hydroxy-3-(1H-indol-3-yl) propionamide.]
≥ 10 µM | O=C(NO)[C@@H](CNS(=O)(=O)Cc1ccccc1)NS(=O)(=O)Cc1ccc2sccc2c1 [Example 69, (R)-2-(Benzo[b]thiophen-5-ylmethanesulfonylamino)-N-hydroxy-3-(phenylmethanesulfonylamino)-propionamide]
≥ 10 µM | O=C(NO)[C@H](NS(=O)(=O)Cc1ccc2sccc2c1)c1ccccc1 [Example 28, (R)-2-(Benzo[b]thiophen-5-ylmethanesulfonylamino)-N-hydroxy-2-phenylacetamide]
≥ 10 µM | O=C(NO)[C@H](NS(=O)(=O)C[C@@H]1CCc2ccccc2C1)c1ccccc1 [Example 29, (R)-2-Phenyl-2-[(R)-1-(1,2,3,4-tetrahydronaphthalen-2-yl)methanesulfonylamino]-N-hydroxyacetamide]
≥ 10 µM | O=C(NO)[C@H](NS(=O)(=O)Cc1ccc2sccc2c1)c1ccc(O)cc1 [Example 33]
≥ 10 µM | CC(C)(C)C[C@@H](NS(=O)(=O)Cc1ccc2ccccc2c1)C(=O)NO [Example 6]
